From patent US10646479B2, “Use of N-(4-iodobenzoylamino)-5-ethyl-1,2,3,6-tetrahydropyridine as a treatment for cancer” (Florida A&M University, priority 2018, dated 2020) come the findings set out here.

pIC50: −log10 of the molar value.

Common to all, as to type: cell-based, human
Assay [1] concerns Ishikawa cell line. Put plainly: CellTiter-Glo (CTG) luminescent cell viability assay, Ishikawa cells. The conditions noted are these: for pIC50: Ishikawa endometrial adenocarcinoma cells, CTG viability. Here is the method: (§1) This compound was evaluated against three types of cancer cells: Ishikawa, MDA-MB-231, and MCF-7 using the CellTiter-Glo (CTG) luminescent cell viability assay. Ishikawa cell line is an endometrial adenocarcinoma isolated from a person. MDA-MB-231 is a triple negative breast cancer cell line isolated from a person. MCF-7 is an estrogen receptor positive breast cancer cell line isolated from a person.
(Cellular ATP, detected with luciferase, serves as a proxy for viable cell number.)

The test system of assay [2] is MCF-7 cell line. The experiment in a line: CellTiter-Glo (CTG) luminescent cell viability assay, MCF-7 cells. The conditions noted are these: for pIC50: MCF-7 estrogen receptor positive breast cancer cells, CTG viability. Here is the method:
as §1

In assay [3] the test system is MDA-MB-231 cell line. The experiment in a line: CellTiter-Glo (CTG) luminescent cell viability assay, MDA-MB-231 cells. The conditions noted are these: for pIC50: MDA-MB-231 triple negative breast cancer cells, CTG viability. Here is the method:
as §1

Consider 4-Hydroxytamoxifen [reference compound], for which the pIC50 is 4.58 in assay [1], 5.17 in assay [2] and 4.64 in assay [3].
In the case of `CCC1=CCCN(NC(=O)c2ccc(I)cc2)C1` [EH-1-40, N-(4-iodobenzoylamino)-5-ethyl-1,2,3,6-tetrahydropyridine], the pIC50 in assay [1] (Homo sapiens) was 5.53; in assay [2] (Homo sapiens, MCF7), 5.90; in assay [3] (Homo sapiens), 5.25. The “activity compared to Tamoxifen and 4-Hydroxytamoxifen” value in assay [1] (Ishikawa cell line), in assay [2] (MCF-7 cell line) and in assay [3] (MDA-MB-231 cell line) was “better activity” in each case.

As a reminder, the pIC50 is −log10 of the IC50, conventionally taken in molar units.
